Our source for the melting point values is the Bradley open melting point set (2014).

“And” between values parts separate entries of the source, which are not always exact repeats. Identical values can stand only once.

Turning to `Cc1ccccc1C` [o-xylene], the melting point (commonly the temperature, or range, at which the solid turns liquid) is -25 °C.
Regarding `Cc1ccc(N=C=O)cc1N=C=O` [toluene-2,4-diisocyanate], the melting point stood at 21 °C.
`CN=C=S` [Isothiocyanatomethane]: the melting point was 35 °C.
Take `Cc1cc(CC(=O)O)n(C)c1C(=O)c1ccc(Cl)cc1` [zomepirac]: the melting point worked out at 178 °C.
Turning to `CCOc1ccc([N+](=O)[O-])cc1Br` [2-bromo-4-nitrophenetole], the melting point is 55 °C.
For `N#Cc1cccc(Cl)c1` [3-chlorobenzonitrile], the melting point was 41 °C.
As for `CCCCCCC(C)=O` [2-octanone], the melting point is -16 °C.
In turn, `O=C1c2ccccc2C(=O)N1CCCCCCBr` [N-(6-bromohexyl)phthalimide] gave a melting point of 57 °C.
For `[O-][Cl+3]([O-])([O-])O` [Perchloric acid] the value was -17 °C; for `NC(=S)C1COc2ccccc2O1` (configuration not stated) [1,4-benzodioxane-2-thiocarboxamide], 174 °C; for `Cc1cc(C)c(C(=O)C(=O)O)c(C)c1` [mesitylglyoxylic acid], 121 °C.
`Brc1ccc(Br)cc1` [1,4-dibromobenzene]: the melting point came out at 88 °C.
The compound `Nc1cccc2c(N)cccc12` [1,5-Naphthalenediamine] yielded a melting point of 158 °C.
Take `C=Cc1ccccc1C` [2-methylstyrene]: the melting point was -69 °C.
On to `CNC(C)C(O)c1ccccc1` (configuration not stated) [2-(Methylamino)-1-phenylpropan-1-ol], for which the melting point was determined as 36 °C.
In turn, `O=c1[nH]cc(F)c(=O)[nH]1` [fluorouracil] came in with a melting point of 282 °C.
`O=C(O)c1c(F)c(F)c(F)c(F)c1F` [pentafluorobenzoic acid] yielded a melting point of 102 °C.
In turn, `CC(COc1ccccc1)NC(C)C(O)c1ccc(O)cc1` (configuration not stated) [isoxsuprine] came in with a melting point of 103 °C.
Take `Clc1ccccc1Cl` [o-dichlorobenzene]: the melting point is -17 °C.
With `CCCCCCCCCCCC[N+](C)(C)[O-]` [Dodecyl(dimethyl)amine oxide] the figure was 132 °C; with `c1cc2cccc3c4cccc5cccc(c(c1)c23)c54` [Perylene], 278 °C; with `c1ccc(NNc2ccccc2)cc1` [1,2-Diphenylhydrazine], 125 °C.
Compound `C[SiH](C)Cl` [chlorodimethylsilane] showed a melting point of -111 °C.
For `Oc1ccc(-c2ccccc2)cc1` [p-phenylphenol] the value was 167 °C; for `N#Cc1ccc(O)cc1` [4-Hydroxybenzonitrile], 112 °C.
Turning to `CCc1ccccc1O` [2-ethylphenol], the melting point was -18 °C.
For `O=C(O)C1CCCC1` [cyclopentanecarboxylic acid] the value was 3.5 °C; for `CC(=O)OCC(CCn1cnc2cnc(N)nc21)COC(C)=O` [Famciclovir], 103 °C.
With `CN(C)C(=N)NC(=N)N` [Metformin] the figure was 224 °C; with `CC(=O)c1ccc(Br)cc1` [4'-bromoacetophenone], 51 °C; with `COC(=O)c1cc(OC)c(OC)c(OC)c1` [methyl 3,4,5-trimethoxybenzoate], 85 °C.
The compound `O=C[C@H](O)[C@H](O)[C@H](O)CO` [D-ribose] gave a melting point of 84 °C.
Regarding `COc1ccc(CBr)c(Cl)c1` [2-chloro-4-methoxybenzyl bromide], the melting point was 57 °C.
`O=C(O)[C@@H]1CCCN1C(=O)OCc1ccccc1` [N-Cbz-L-proline] returned a melting point of 77 °C.
Regarding `O=C1O[C@H]([C@@H](O)CO)C(O)=C1O` [ascorbic acid], the melting point came out at 191 °C.
The compound `OB(O)c1cccc(Br)c1` [3-bromobenzeneboronic acid] registered a melting point of 166 °C.
Consider `CCCCCCCCCCN` [1-aminodecane], for which the melting point was found to be 16 °C.
With `CN1N=C(C(C)(C)C)CC1=O` [3-tert-butyl-1-methyl-2-pyrazolin-5-one], the melting point was 149 °C.
On to `CCC(C)(C)C` [2,2-Dimethylbutane], for which the melting point was -100 °C.
In turn, `OC1OC[C@@H](O)[C@H](O)[C@H]1O` (stereo partly drawn) [D-xylose] displayed a melting point of 149 °C.
For `O=C1Nc2ccc(Cl)cc2C(c2ccccc2Cl)=NC1O` (configuration not stated) [Lorazepam] the value was 166 °C; for `COc1ccc(-c2ccc(S(=O)(=O)Cl)cc2)cc1` [4'-methoxybiphenyl-4-sulfonyl chloride], 103 °C; for `Brc1ccc(-c2cccc(Br)n2)cn1` [6,6'-dibromo-2,3'-bipyridine], 168 °C.
Turning to `O=Cc1cccc2ccccc12` [1-naphthaldehyde], the melting point amounted to 2 °C.
`C/C=C(\C)C(=O)O` [tiglic acid] showed a melting point of 64 °C.
In the case of `OCc1cccc(O)c1` [3-hydroxybenzyl_alcohol], the melting point was determined as 72 °C.
In turn, `Cc1cccc(N)n1` [2-amino-6-methylpyridine] returned a melting point of 43 °C.
Compound `CC(=O)[C@H]1C[C@@H](CC(=O)O)C1(C)C` [[(1S,3S)-3-Acetyl-2,2-dimethylcyclobutyl]acetic acid] came in with a melting point of 67.8 °C.
Turning to `CCCc1ccc(-c2ccc(C(=O)O)cc2)cc1` [4'-n-propylbiphenyl-4-carboxylic acid], the melting point was determined as 226 °C.
`Nc1ccc2c(c1)C(=O)c1ccccc1C2=O` [2-Amino-9,10-anthraquinone]: the melting point came to 295 °C.
Take `S=P(N1CC1)(N1CC1)N1CC1` [1,1',1''-Phosphorothioyltriaziridine]: the melting point is 51.5 °C.
Take `COP(=O)(OC)C(O)C(Cl)(Cl)Cl` (configuration not stated) [Dimethyl (2,2,2-trichloro-1-hydroxyethyl)phosphonate]: the melting point stood at 83 °C.
For `OB(O)c1cc2ccccc2nc1Cl` [2-chloroquinoline-3-boronic acid] the value was 146 °C; for `Nc1cccc(N)c1` [m-phenylenediamine], 65 °C; for `FC(F)(F)c1ccccc1CBr` [2-(trifluoromethyl)benzyl bromide], 29 °C.
For the compound `c1c[nH]nn1` [1h-1,2,3-triazole], the melting point was found to be 24 °C.
As to `Cl/C=C/CCl` [1,3-dichloropropene, cis trans], the melting point was -84 °C.
The compound `CC(O)CC(C)(C)O` (configuration not stated) [2-methyl-2,4-pentanediol] registered a melting point of -40 °C.
Turning to `CCC(C)C1(CC)C(=O)NC(=O)NC1=O` (configuration not stated) [secbutabarbital], the melting point came out at 166 °C.
Consider `CC(=O)Nc1ccc(C(C)=O)cc1Br` [4'-acetamido-3'-bromoacetophenone], for which the melting point is 140 °C.
In the case of `Cc1ccc(C(C)C)cc1` [1-methyl-4-isopropylbenzene], the melting point was -68 °C.
The compound `Cc1ccccc1C(=O)O` [2-Methylbenzoic acid] yielded a melting point of 108 °C.
With `O=C(O)/C=C(/CC(=O)O)C(=O)O` [cis-aconitic acid], the melting point was 118 °C.
With `O=[N+]([O-])c1ccc(C=NO)cc1` [Benzaldehyde, 4-nitro-, oxime], the melting point is 130 °C.
`COc1cc(C=O)ccc1O` [vanillin]: the melting point was found to be 82 °C.
Take `CCCCc1ccc(C(=O)Oc2ccc(C#N)cc2)cc1` [4-cyanophenyl 4-n-butylbenzoate]: the melting point was 68 °C.
For `Cc1ccc(C#N)cc1` [4-Methylbenzonitrile] the value was 29 °C; for `Cc1cccc([N+](=O)[O-])c1C` [3-nitro-1,2-dimethylbenzene], 9 °C; for `CC(C)N` [2-aminopropane], -95 °C.
`CC(=O)O/C(=C\C=C(\OC(C)=O)c1ccccc1)c1ccccc1` [(1E,3Z)-4-(acetyloxy)-1,4-diphenylbuta-1,3-dien-1-yl acetate]: the melting point was 126 °C.
Compound `O=C\1c3c(O/C(=C/1)c2ccc(O)c(O)c2)cc(O)cc3O` [luteolin] displayed a melting point of 330 °C.
As to `CCc1ccccc1CC` [1,2-diethylbenzene], the melting point is -31 °C.
`CCCCCCCCCCCCSCCCCCCCCCCCC` [di-n-dodecyl sulfide] registered a melting point of 40 °C.
Compound `N#Cc1cccc(C(=O)O)c1` [3-cyanobenzoic acid] showed a melting point of 222 °C.
`O=C(Cl)c1ccccc1F` [2-fluorobenzoyl chloride] showed a melting point of 5 °C.
With `O=C(O)c1cc(/N=N/c2ccc(S(=O)(=O)Nc3ccccn3)cc2)ccc1O` the figure was 249 °C; with `BrC=Cc1ccccc1` [beta-bromostyrene, cis trans], -8 °C; with `CCCCC(=O)O` [pentanoic acid], -33.9 °C and -33.7 °C.
Turning to `Oc1ccc(Cl)c(Cl)c1` [3,4-Dichlorophenol], the melting point was 67 °C.
In the case of `O=c1[nH]c(=O)n([C@H]2C[C@H](O)[C@@H](CO)O2)cc1F` [5-fluoro-2'-deoxyuridine], the melting point was determined as 150 °C.
For `Sc1nccs1` [2-mercaptothiazole] the value was 79 °C.
For `CC1=CC(=O)C=C(C)C1=O` [2,6-dimethyl-p-benzoquinone] the value was 70 °C; for `C=CCCCCCCCCC` [1-undecene], -49 °C.
For `C=CCCCCCCCC` [Dec-1-ene], the melting point is -66 °C.
`O=S(=O)(Cl)c1ccc(Cl)cc1` [4-chlorobenzenesulfonyl chloride] returned a melting point of 52 °C.
Consider `CN(C)[C@@H]1C(O)=C(C(N)=O)C(=O)[C@@]2(O)C(O)=C3C(=O)c4c(O)ccc(Cl)c4[C@@](C)(O)[C@H]3C[C@@H]12` [chlortetracycline], for which the melting point was determined as 168 °C.
The compound `CC(C(=O)O)c1cccc(C(=O)c2ccccc2)c1` (configuration not stated) [ketoprofen] showed a melting point of 94 °C.
`BrCC(Br)CBr` [1,2,3-tribromopropane]: the melting point came to 17 °C.
As to `ClCc1ccccc1CCl` [a,a'-dichloro-o-xylene], the melting point was found to be 56 °C.
Turning to `O=S(=O)(Cl)Cc1cccc(Cl)c1` [3-chlorophenylmethanesulfonyl chloride], the melting point amounted to 71 °C.
Regarding `N#CCc1ccc(O)cc1` [4-hydroxybenzyl_cyanide], the melting point was found to be 71 °C.
`OCCCCCCCCCCCCO` [1,12-dodecanediol]: the melting point came to 83 °C.
